Data taken from PubChem BioAssay AID330 (DTP/NCI, 2004).
“And” between values parts separate entries of the source, which are not always exact repeats. Equal values may be shown once. Toxic doses and inconclusive results are not listed.

Test system: P388 leukemia ip, CD2F1 mice, survival T/C
Assay: NCI In Vivo Anticancer Drug Screen. Data for tumor model P388 Leukemia (intraperitoneal) in CD2F1 (CDF1) mice
Conditions: endpoint: median survival time, higher = longer survival
Procedure, shortened: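 Mice carrying the transplanted tumor received test compound or vehicle. Survival was recorded in each group, and the value is the treated-group measurement divided by that of the vehicle-treated control group.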

[1] = dose: 50.0 mg/kg/injection, schedule: Q01DX009 (ip), vehicle: Klucel (hydroxypropylcellulose) (HPC)
[2] = dose: 100.0 mg/kg/injection, schedule: Q01DX009 (ip), vehicle: Klucel (hydroxypropylcellulose) (HPC)
[3] = dose: 200.0 mg/kg/injection, schedule: Q01DX009 (ip), vehicle: Klucel (hydroxypropylcellulose) (HPC)
[4] = dose: 50.0 mg/kg/injection, schedule: Q01DX005 (ip), vehicle: saline with Tween-80
[5] = dose: 100.0 mg/kg/injection, schedule: Q01DX005 (ip), vehicle: saline with Tween-80
[6] = dose: 200.0 mg/kg/injection, schedule: Q01DX005 (ip), vehicle: saline with Tween-80
[7] = dose: 60.0 mg/kg/injection, schedule: Q01DX005 (ip), vehicle: Klucel (hydroxypropylcellulose) (HPC)
[8] = dose: 120.0 mg/kg/injection, schedule: Q01DX005 (ip), vehicle: Klucel (hydroxypropylcellulose) (HPC)
[9] = dose: 240.0 mg/kg/injection, schedule: Q01DX005 (ip), vehicle: Klucel (hydroxypropylcellulose) (HPC)
[10] = dose: 60.0 mg/kg/injection, schedule: Q01DX005 (ip), vehicle: saline with Tween-80
[11] = dose: 120.0 mg/kg/injection, schedule: Q01DX005 (ip), vehicle: saline with Tween-80
[12] = dose: 240.0 mg/kg/injection, schedule: Q01DX005 (ip), vehicle: saline with Tween-80

Nc1nc(F)nc2c1ncn2C1OC(COP(=O)(O)O)C(O)C1O (stereo not given)
T/C (dose: 12.5 mg/kg/injection, schedule: Q01DX009 (ip), vehicle: Klucel (hydroxypropylcellulose) (HPC)): 110 % of control | T/C (dose: 25.0 mg/kg/injection, schedule: Q01DX009 (ip), vehicle: Klucel (hydroxypropylcellulose) (HPC)): 117 % of control | T/C [1]: 120 % of control | T/C (dose: 50.0 mg/kg/injection, schedule: Q04DX002 (ip), vehicle: saline): 100 % of control | T/C [2]: 153 % of control and 165 % of control | T/C (dose: 100.0 mg/kg/injection, schedule: Q04DX002 (ip), vehicle: saline): 107 % of control | T/C (dose: 175.0 mg/kg/injection, schedule: Q01DX009 (ip), vehicle: saline): 203 % of control and 213 % of control | T/C [3]: 111 % of control and 215 % of control | T/C (dose: 200.0 mg/kg/injection, schedule: Q01DX009 (ip), vehicle: saline): 222 % of control and 224 % of control | T/C (dose: 200.0 mg/kg/injection, schedule: Q04DX002 (ip), vehicle: saline): 111 % of control and 117 % of control | T/C (dose: 225.0 mg/kg/injection, schedule: Q01DX009 (ip), vehicle: saline): 230 % of control and 233 % of control | T/C (dose: 250.0 mg/kg/injection, schedule: Q01DX009 (ip), vehicle: saline): 236 % of control and 241 % of control | T/C (dose: 400.0 mg/kg/injection, schedule: Q04DX002 (ip), vehicle: saline): 123 % of control | T/C (dose: 1500.0 mg/kg/injection, schedule: Q01DX001 (ip), vehicle: saline): 155 % of control | T/C (dose: 1600.0 mg/kg/injection, schedule: Q04DX002 (ip), vehicle: saline): 182 % of control

CC(=O)O[C@H]1C(=O)[C@]2(C)[C@@H](OC(C)=O)CC3OC[C@@]3(OC(C)=O)[C@H]2[C@H](OC(=O)c2ccccc2)[C@]2(O)C[C@H](OC(=O)[C@H](OC(C)=O)[C@@H](NC(=O)c3ccccc3)c3ccccc3)C(C)=C1C2(C)C (stereo not given in full)
T/C (dose: 2.5 mg/kg/injection, schedule: Q01DX005 (ip), vehicle: DMSO): 100 % of control | T/C (dose: 5.0 mg/kg/injection, schedule: Q01DX005 (ip), vehicle: DMSO): 102 % of control and 118 % of control | T/C (dose: 10.0 mg/kg/injection, schedule: Q01DX005 (ip), vehicle: DMSO): 102 % of control and 124 % of control | T/C (dose: 12.5 mg/kg/injection, schedule: Q01DX005 (ip), vehicle: DMSO): 107 % of control | T/C (dose: 20.0 mg/kg/injection, schedule: Q01DX005 (ip), vehicle: DMSO): 121 % of control | T/C (dose: 25.0 mg/kg/injection, schedule: Q01DX005 (ip), vehicle: DMSO): 120 % of control | T/C (dose: 40.0 mg/kg/injection, schedule: Q01DX005 (ip), vehicle: DMSO): 178 % of control | T/C (dose: 50.0 mg/kg/injection, schedule: Q01DX005 (ip), vehicle: DMSO): 124 % of control | T/C (dose: 100.0 mg/kg/injection, schedule: Q01DX005 (ip), vehicle: DMSO): 120 % of control

N#CC(OC(=O)c1ccccc1)C(OC(=O)c1ccccc1)C(COC(=O)c1ccccc1)OC(=O)c1ccccc1 (stereo not given)
T/C [4]: 99 % of control and 92 % of control | T/C [5]: 94 % of control | T/C [6]: 99 % of control

CCCOC(=O)c1ccc(NC(=O)Nc2ccc(C(=O)OCC)cc2)cc1
T/C [7]: 87 % of control | T/C [8]: 90 % of control | T/C [9]: 88 % of control

O=c1[nH]c2c([N+](=O)[O-])cc(Cl)cc2nc1/C=C(\O)c1ccc(Cl)cc1
T/C (dose: 30.0 mg/kg/injection, schedule: Q01DX005 (ip), vehicle: Klucel (hydroxypropylcellulose) (HPC)): 99 % of control | T/C [7]: 100 % of control | T/C [8]: 99 % of control and 108 % of control | T/C [9]: 105 % of control

NC1CC2CCCCC2CC1c1ccccc1 (stereo not given)
T/C (dose: 100.0 mg/kg/injection, schedule: Q01DX001 (ip), vehicle: Klucel (hydroxypropylcellulose) (HPC)): 91 % of control | T/C (dose: 200.0 mg/kg/injection, schedule: Q01DX001 (ip), vehicle: Klucel (hydroxypropylcellulose) (HPC)): 97 % of control | T/C (dose: 400.0 mg/kg/injection, schedule: Q01DX001 (ip), vehicle: Klucel (hydroxypropylcellulose) (HPC)): 96 % of control

CC1(C)CC(C)(OC(=O)c2ccccc2Cl)[N+]([O-])=N1 (stereo not given) (tested in a mixture with another compound)
T/C (dose: 12.5 mg/kg/injection, schedule: Q01DX009 (ip), vehicle: other): 99 % of control | T/C (dose: 25.0 mg/kg/injection, schedule: Q01DX009 (ip), vehicle: other): 98 % of control | T/C (dose: 50.0 mg/kg/injection, schedule: Q01DX009 (ip), vehicle: other): 93 % of control | T/C (dose: 100.0 mg/kg/injection, schedule: Q01DX009 (ip), vehicle: other): 94 % of control | T/C (dose: 200.0 mg/kg/injection, schedule: Q01DX009 (ip), vehicle: other): 100 % of control

CCCN(CCC)CCN1C(=O)NC(C)(c2ccccc2)C1=O (stereo not given)
T/C (dose: 7.5 mg/kg/injection, schedule: Q01DX005 (ip), vehicle: saline with Tween-80): 100 % of control | T/C (dose: 15.0 mg/kg/injection, schedule: Q01DX005 (ip), vehicle: saline with Tween-80): 101 % of control and 97 % of control | T/C (dose: 30.0 mg/kg/injection, schedule: Q01DX005 (ip), vehicle: saline with Tween-80): 99 % of control and 103 % of control | T/C [10]: 101 % of control and 94 % of control and 97 % of control

CCN(CC)CCCCNC(=O)c1noc2cc([N+](=O)[O-])ccc12
T/C (dose: 3.12 mg/kg/injection, schedule: Q01DX005 (ip), vehicle: Klucel (hydroxypropylcellulose) (HPC)): 100 % of control | T/C (dose: 6.25 mg/kg/injection, schedule: Q01DX005 (ip), vehicle: Klucel (hydroxypropylcellulose) (HPC)): 99 % of control and 105 % of control | T/C (dose: 12.5 mg/kg/injection, schedule: Q01DX005 (ip), vehicle: Klucel (hydroxypropylcellulose) (HPC)): 103 % of control and 97 % of control | T/C (dose: 25.0 mg/kg/injection, schedule: Q01DX005 (ip), vehicle: Klucel (hydroxypropylcellulose) (HPC)): 103 % of control and 122 % of control and 96 % of control

O=C1c2ccc3ccccc3c2CN2C(=O)CCC12 (stereo not given)
T/C [10]: 105 % of control | T/C [11]: 103 % of control | T/C [12]: 104 % of control

O=C1OCCOCCOCCOCCOCCOC(=O)c2cccc1n2
T/C (dose: 100.0 mg/kg/injection, schedule: Q04DX003 (ip), vehicle: Klucel (hydroxypropylcellulose) (HPC)): 96 % of control | T/C (dose: 200.0 mg/kg/injection, schedule: Q04DX003 (ip), vehicle: Klucel (hydroxypropylcellulose) (HPC)): 103 % of control | T/C (dose: 400.0 mg/kg/injection, schedule: Q04DX003 (ip), vehicle: Klucel (hydroxypropylcellulose) (HPC)): 101 % of control

CNC(=O)Oc1ccc2c(c1)[C@]1(C)CCN(C)[C@@H]1N2C
T/C (dose: 0.05 mg/kg/injection, schedule: Q01DX005 (ip), vehicle: saline with Tween-80): 98 % of control | T/C (dose: 0.05 mg/kg/injection, schedule: Q01DX009 (ip), vehicle: saline): 102 % of control | T/C (dose: 0.1 mg/kg/injection, schedule: Q01DX005 (ip), vehicle: saline with Tween-80): 99 % of control | T/C (dose: 0.1 mg/kg/injection, schedule: Q01DX009 (ip), vehicle: saline): 101 % of control | T/C (dose: 0.2 mg/kg/injection, schedule: Q01DX005 (ip), vehicle: saline with Tween-80): 99 % of control | T/C (dose: 0.2 mg/kg/injection, schedule: Q01DX009 (ip), vehicle: saline): 97 % of control | T/C (dose: 0.4 mg/kg/injection, schedule: Q01DX005 (ip), vehicle: saline with Tween-80): 93 % of control | T/C (dose: 0.4 mg/kg/injection, schedule: Q01DX009 (ip), vehicle: saline): 111 % of control

CC1=NN(c2ccccc2)C(=O)/C1=C\c1ccc([N+](=O)[O-])cc1
T/C [10]: 104 % of control | T/C [11]: 101 % of control | T/C [12]: 103 % of control

NCC1CC2CCC1CC2 (stereo not given)
T/C (dose: 12.5 mg/kg/injection, schedule: Q01DX005 (ip), vehicle: saline with Tween-80): 99 % of control | T/C (dose: 25.0 mg/kg/injection, schedule: Q01DX005 (ip), vehicle: saline with Tween-80): 100 % of control | T/C [4]: 100 % of control and 102 % of control

Cc1cc(N(CCCl)CCCl)c(C)cc1NC(=O)c1ccccc1
T/C (dose: 16.5 mg/kg/injection, schedule: Q04DX003 (ip), vehicle: saline with Tween-80): 159 % of control | T/C (dose: 25.0 mg/kg/injection, schedule: Q04DX003 (ip), vehicle: saline with Tween-80): 177 % of control | T/C (dose: 37.5 mg/kg/injection, schedule: Q04DX003 (ip), vehicle: saline with Tween-80): 90 % of control | T/C (dose: 50.0 mg/kg/injection, schedule: Q04DX003 (ip), vehicle: saline with Tween-80): 90 % of control

CC(C)(CC#N)c1cc(CC(C)(C)C2(C)OCCO2)no1
T/C [4]: 104 % of control | T/C [5]: 98 % of control | T/C [6]: 92 % of control

COc1ccc2c(c1)CSCC2=O
T/C [1]: 98 % of control | T/C [2]: 98 % of control | T/C [3]: 100 % of control
